Where two headings read alike, the source gives them in different places. Where only a bound is given, the exact number is not on record here.

3 compounds from patent US4366158A, “1-(8-Quinolyl)-2-pyrrolidone and its pharmaceutical compositions” (Burroughs Wellcome Co., priority 1979, dated 1982) can be followed below.

The subject of data set [1] is rat. Nature of the data set: Carrageenin Pleurisy Assay (CPA), mobilized neutrophils at 3 hours. Particulars: Neutrophil, po, read-out: ED50, 3 hr. Cells. Type of data set: in vivo. The procedure:
Following the procedure described by Vinegar et al. in Proc Soc Exp Biol Med 151, 556, (1976), the acute anti-inflammatory activity of the compound of formula (I) was compared with that of known anti-inflammatory drugs in the rat. Two assays were performed: in the first, the average 3 hour exudate volume for each drug-treated group was determined and the % inhibition relative to solvent-fed control animals calculated, the ED50 being the dose required to reduce the 3 hour exudate volume by 50%; in the second, the number of mobilized neutrophils was quantified and the % inhibition relative to solvent-fed control animals calculated, the ED50 being the dose required to reduce the number of neutrophils mobilized at 3 hours by 50%.

Data set [2] concerns rat. Nature of the data set: Trypsin Hyperalgesic Assay (Published THA). Type of data set: in vivo. Particulars: for ED50: po, 0.5 h. The procedure: (§1) The analgesic agents were administered 30 minutes after the administration of trypsin. In addition, a modification of Vinegar's published assay was carried out, comprising the administration of the analgesic agent preceding subplantar injection of trypsin (0.10 ml of 10% solution of trypsin in pyrogen-free water) by 15 minutes. In both THA's, pain scores were determined 60 minutes after trypsin injection.

Data set [3] concerns rat. Briefly: Carrageenin Pleurisy Assay (CPA), 3 hour exudate volume. Type of data set: in vivo. Conditions: for ED50: po, read-out: ED50, 3 hr. Vol.
In data set [4] the test system is rat. Briefly: Acetic Acid Writhing Test (AAWT), rat. Type of data set: in vivo. Conditions: po. An excerpt: (§2) Using the procedure described by Koster et al. in Fed. […] 26, Anti-inflammatory Drugs, Ed.
The nature of data set [5]: Toxicity Test. Particulars: rat, in vivo, po. The method, then: Four non-fasted male rats of 160-250 gram body weight was used for each dose level. The compound to be tested was administered by the indicated route and the symptom onset time, the intensity of the effect and the duration during a 4 hour observation period were recorded. The LD50 estimation was based on a 7 day observation and was determined by the method of Miller and Tainter (Proc. Soc. Exp. Biol. Med. 57, 261 (1944)).

In data set [6] the test system is rat. Nature of the data set: Trypsin Hyperalgesic Assay (Modified THA). Conditions: po. Type of data set: in vivo. The procedure: as §1
Data set [7] relates to rat. Nature of the data set: Yeast-Induced Hyperthermia Assay. The data set is classed as in vivo. Conditions: for antipyretic and hypothermic activity: rat; for ED50: po. An excerpt:
The Yeast-Induced Hyperthermia Assay was used according to the procedure described by Khalili-Varasteh et al. in Arch. Int. Pharmacodyn.

Data set [8] deals with mouse. Nature of the data set: Acetic Acid Writhing Test (AAWT), mouse. Type of data set: in vivo. Particulars: po.
Description: as §2
(In general: An intraperitoneal irritant provokes the stretching counted in writhing tests.)

Data set [9] deals with rat. Type of data set: in vivo.
A short description of data set [10]: acetic acid writhing assays (species not stated). Type of data set: in vivo. Particulars: in words.
The subject of data set [11] is rat. Briefly: Carrageenin Hindlimb Oedema Assay (CHOA). Type of data set: in vivo.
Data set [12] has as its system morphine receptor. Briefly: binding to the morphine receptor.
Data set [13] deals with rat. Briefly: anti-inflammatory action in the rat, in words (carrageenin pleurisy and carrageenin hindlimb oedema assays). Type of data set: in vivo. On the technique in general: The carrageenan paw model is a standard test of acute inflammation.
The subject of data set [14] is prostaglandin cyclooxygenase. Nature of the data set: inhibition of prostaglandin cyclooxygenase. The data set is classed as biochemical.
Data set [15] has as its system peroxidase. Briefly: inhibition of peroxidase. Type of data set: biochemical.
The nature of data set [16]: solubility of the base. The data set is classed as physicochemical.
For data set [17], the system named is lipoxygenase. Nature of the data set: inhibition of lipoxygenase. The data set is classed as biochemical.
Data set [18] concerns brain. Nature of the data set: analgesic activity when injected directly into the brain. Type of data set: in vivo.
The nature of data set [19]: inhibition of analgesic activity by naloxone. Type of data set: in vivo.
Setting [20] is: CPA, neutrophils mobilized at 3 hours reduced by 50%, rat, p.o.
Where [21] appears, read: Published THA, rat, p.o., agent 30 minutes after trypsin, read-out: ED50.
Setting [22] is: CPA, 3 hour exudate volume reduced by 50%, rat, p.o.
Where [23] appears, read: AAWT, rat, p.o., read-out: ED50.
Setting [24] is: Modified THA, rat, p.o., agent 15 minutes before trypsin, read-out: ED50.
[25] abbreviates: Rat Yeast Hyperthermia, p.o., read-out: ED50.
Where [26] appears, read: male rats, 7 day observation, method of Miller and Tainter, read-out: LD50.

On to `CC(=O)Nc1ccc(O)cc1` [Acetaminophen], for which the ED50 (in general, the dose that gives a 50% effect, or the effect in half of the subjects) came out at 189 ± 48.6 mg/kg in [1] (setting [20]); 360 mg/kg in data set [2] (setting [21]); 172 ± 22.4 mg/kg in data set [3] (setting [22]); 127 ± 16.6 mg/kg in data set [4] (setting [23]); 95 ± 17.2 mg/kg in data set [6] (setting [24]); 72 ± 8.6 mg/kg in data set [7] (setting [25]). Besides, in data set [3] (CPA, 220 mg/kg (p.o.)), the “duration of acute anti-inflammatory activity (time of drug administration prior to carrageenin in which inhibition of 3 hour pleural exudate volume declined to 40%)” value is recorded as “over 2 hours”. The LD50 – broadly, the dose at which mortality reaches 50% – at 168 h in data set [5] was 2000 mg/kg. Besides, the NOAEL at 4 h in data set [5] turned out to be 250 mg/kg. For the same compound, the “antipyretic and hypothermic activity” value in data set [7] (in words) was “antipyretic and hypothermic activity”.

For `CC(=O)Oc1ccccc1C(=O)O` [Aspirin], the ED50 is 75 ± 7.5 mg/kg in data set [1] (Rattus norvegicus, 3 h); > 180 mg/kg in data set [2] (Rattus norvegicus); 28 ± 3.2 mg/kg in data set [3] (Rattus norvegicus, 3 h); 137 ± 16.9 mg/kg in data set [8] (Mus musculus); 21 ± 3.4 mg/kg in [4] (Rattus norvegicus); > 180 mg/kg in [6] (Rattus norvegicus). Besides, the ED50 was found to be 50 ± 8.1 mg/kg in data set [7] and 145 ± 74 mg/kg in data set [11] (Rattus norvegicus). Besides, the gastric damage entry in [9] (single oral dose of 30 mg/kg) was “produces ulcers and haemorrhages”. Moreover, the NOAEL at 4 h in data set [5] (male rats, 4 hour observation, read-out: No symptom dose) was 10 mg/kg. Further, in [5] (setting [26]), the LD50 at 168 h came out at 1610 mg/kg. Also, in [10], the “activity in the former (acetic acid writhing) assay” value was “inactive in the former assay”.

Take `O=C1CCCN1c1cccc2cccnc12` [Compound of Formula (I), 1-(8-quinolyl)-2-pyrrolidinone]: the ED50 in [1] (setting [20]) turned out to be 37 ± 10.4 mg/kg; in [2] (setting [21]), 37 ± 7.8 mg/kg; in data set [3] (setting [22]), 20 ± 4.3 mg/kg; in data set [8] (AAWT, mouse, p.o., read-out: ED50) it was 99 ± 9.8 mg/kg; in data set [4] (setting [23]) it was 22 ± 2.1 mg/kg; in data set [6] (setting [24]), 13 ± 1.8 mg/kg. Further, the ED50 in data set [7] (setting [25]) was 22 ± 3.9 mg/kg; in data set [11] (CHOA, rat, read-out: ED50), 54 ± 31.6 mg/kg. Moreover, the “duration of analgesic activity (time of drug administration prior to trypsin in which inhibition of hyperalgesia declined to 40%)” value in data set [2] (published THA, 75 mg/kg (p.o.)) amounted to 10.8 h. For the same compound, the “duration of acute anti-inflammatory activity (time of drug administration prior to carrageenin in which inhibition of 3 hour pleural exudate volume declined to 40%)” value in [3] (CPA, 80 mg/kg (p.o.)) came out at 9 h. For the same compound, the gastric damage entry in data set [9] (rat, 5 days of oral dosing at 40 mg/kg) was “does not produce gastric damage”; in [9] (rat, single oral dose of 200 mg/kg) it was “does not produce gastric damage”. For the same compound, the NOAEL at 4 h in [5] came out at 250 mg/kg. Further, in [5] (setting [26]), the LD50 at 168 h was determined as 1650 mg/kg. For the same compound, the “binding to the morphine receptor” value in data set [12] was “does not appreciably bind to the morphine receptor”. Besides, the anti-inflammatory activity entry in [13] (rat) is “potent, long-lasting acute anti-inflammatory activity”. The “anti-inflammatory effect compared with acetaminophen” value in [13] (versus acetaminophen) is “more potent and to have a longer lasting anti-inflammatory effect”. The “inhibition of prostaglandin cyclooxygenase” value in data set [14] is listed as “does not inhibit”. For the same compound, the “effect on body temperature of rats with a normal temperature” value in [7] (in words, higher dose levels) is reported as “lowers the body temperature of rats”. The “antipyretic and hypothermic activity” value in data set [7] (in words) was “antipyretic and hypothermic activity”. Also, in [15], the inhibition of peroxidase result was “does not inhibit”. For the same compound, the solubility in data set [16] (in 0.1 N HCl) and in data set [16] (in water) was > 50 mg/mL each time. Further, in data set [17], the inhibition of lipoxygenase entry is reported as “does not inhibit”. The “analgesic activity on injection into the brain” value in data set [18] was “inactive when injected directly into the brain”. For the same compound, the “inhibition of analgesic activity by naloxone” value in data set [19] was “not inhibited by naloxone”.
